From patent publication US12473284B2, “Small molecule inhibitors of ULK1” (Memorial Sloan Kettering Cancer Center, priority 2019, dated 2025)

biological target: ULK1/Atg13 kinase complex (Homo sapiens (Human), UniProt O75385); assay: In vitro kinase assay (Kinase-Glo Plus luminescence, MBP 1-20 peptide substrate); format: biochemical; settings: recombinant His-tagged ULK1/Atg13, 75 min at room temperature; salt form as in Table 1
Protocol: In vitro kinase assays were performed as described below:
Recombinant His-tagged ULK1/Atg13 kinase complex was expressed in […] insect cells, and affinity-purified by Ni-NTA beads, aliquoted and stored at −80° C.
Compounds were dissolved in DMSO to make 10 mM stock solution, aliquoted and stored at −80° C.
1× kinase buffer was prepared: 20 mM Tris-HCl, pH7.5, 100 mM NaCl, 5 mM MgCl2, 0.5 mg/ml BSA, 5 mM DTT, 0.1% Tween-20.
For compound screening experiment, 1 μl of the 10 mM compound stock solution was added using P2.5 pipette into 99 μl 1×kinase buffer to make 100 μM working solution.
For compound titration experiment, 100 μM compound solution was further diluted (with 1×kinase buffer containing 1% DMSO) in a series manner.
30 mM MBP (Myelin basic protein) 1-20 peptide (sequence: […]; SEQ ID NO: 1) was prepared in 1× kinase buffer.
500 μM ATP was prepared in 1× kinase buffer.
Pre-incubation reactions were set up as shown in the Table below and pre-incubated for 10 min at room temperature.
4 μl of 500 μM ATP was added to the pre-incubation reaction (thus the final reaction volume is 20 μl) and incubated for 75 min at room temperature.
20 μl Kinase-Glo Plus (Promega) was added to the reaction (warmed to RT), mixed well and incubated at room temperature for 15 min.
20 μl reaction was pipetted into each well of a white 384-well plate.
the 384-well plate was subjected to brief centrifugation, and luminescence was read in a plate reader.
Calculated inhibition (%) was calculated as follows: […]

Sequence of ULK1/Atg13 kinase complex (O75385 whole entry): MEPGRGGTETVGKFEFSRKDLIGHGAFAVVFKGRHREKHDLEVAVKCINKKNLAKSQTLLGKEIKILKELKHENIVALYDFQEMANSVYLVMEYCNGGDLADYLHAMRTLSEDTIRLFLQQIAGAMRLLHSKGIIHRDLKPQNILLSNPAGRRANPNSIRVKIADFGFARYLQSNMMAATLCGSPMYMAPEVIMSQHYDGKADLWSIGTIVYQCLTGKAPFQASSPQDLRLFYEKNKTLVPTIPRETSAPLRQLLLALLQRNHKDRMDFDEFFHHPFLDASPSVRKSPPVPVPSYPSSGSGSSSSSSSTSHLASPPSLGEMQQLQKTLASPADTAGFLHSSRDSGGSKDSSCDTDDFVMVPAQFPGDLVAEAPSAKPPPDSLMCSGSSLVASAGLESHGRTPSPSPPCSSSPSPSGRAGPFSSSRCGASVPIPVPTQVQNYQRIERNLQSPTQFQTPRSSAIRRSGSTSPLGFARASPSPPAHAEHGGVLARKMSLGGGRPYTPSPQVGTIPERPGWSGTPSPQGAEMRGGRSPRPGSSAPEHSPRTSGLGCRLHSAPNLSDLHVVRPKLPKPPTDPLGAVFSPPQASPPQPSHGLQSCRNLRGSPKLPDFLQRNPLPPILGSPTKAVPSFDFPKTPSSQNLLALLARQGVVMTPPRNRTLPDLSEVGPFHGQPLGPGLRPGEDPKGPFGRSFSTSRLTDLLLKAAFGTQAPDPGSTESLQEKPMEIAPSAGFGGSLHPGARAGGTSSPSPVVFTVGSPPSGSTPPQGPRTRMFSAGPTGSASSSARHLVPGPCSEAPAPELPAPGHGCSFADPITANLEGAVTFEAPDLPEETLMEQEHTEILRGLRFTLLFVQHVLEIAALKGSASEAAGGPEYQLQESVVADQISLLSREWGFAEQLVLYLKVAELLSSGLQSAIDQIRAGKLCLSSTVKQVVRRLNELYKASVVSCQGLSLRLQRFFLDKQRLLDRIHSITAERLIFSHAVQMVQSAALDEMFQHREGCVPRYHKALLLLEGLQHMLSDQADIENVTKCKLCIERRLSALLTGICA
Sequence of ULK1/Atg13 kinase complex (O75143 whole entry partner): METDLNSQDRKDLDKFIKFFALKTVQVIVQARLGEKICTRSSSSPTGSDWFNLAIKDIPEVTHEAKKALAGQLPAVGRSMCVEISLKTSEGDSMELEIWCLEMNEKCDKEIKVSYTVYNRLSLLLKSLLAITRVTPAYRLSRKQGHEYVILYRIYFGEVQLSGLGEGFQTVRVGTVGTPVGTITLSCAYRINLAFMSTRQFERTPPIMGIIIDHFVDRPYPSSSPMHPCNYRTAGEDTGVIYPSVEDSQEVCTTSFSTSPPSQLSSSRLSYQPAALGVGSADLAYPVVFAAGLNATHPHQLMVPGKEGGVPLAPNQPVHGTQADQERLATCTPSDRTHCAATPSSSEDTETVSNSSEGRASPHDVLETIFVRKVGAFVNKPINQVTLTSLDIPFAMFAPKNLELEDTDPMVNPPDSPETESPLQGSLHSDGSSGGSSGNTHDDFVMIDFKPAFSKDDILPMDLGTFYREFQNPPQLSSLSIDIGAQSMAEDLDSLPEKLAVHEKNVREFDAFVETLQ

Compound | IC50 [nM]
CC(N)C1CCC(C(=O)Nc2ccnc3[nH]c(-c4ccsc4)cc23)CC1 (single isomer, unassigned) [MSK-A176-peak 2, (1r,4r)-4-(1-aminoethyl)-N-(2-(thiophen-3-yl)-1H-pyrrolo[2,3-b]pyridin-4-yl)cyclohexanecarboxamide] | 23.6
CC(N)C1CCC(C(=O)Nc2ccnc3[nH]c(-c4ccc(F)cc4)cc23)CC1 (single isomer, unassigned) [MSK-A184_peak 1, (1r,4r)-4-(1-aminoethyl)-N-(2-(4-fluorophenyl)-1H-pyrrolo[2,3-b]pyridin-4-yl)cyclohexanecarboxamide] | 15.5
C[C@@H](N)C1CCC(C(=O)Nc2ccnc3occc23)CC1 (stereo partly shown) [MSK-A091, (1r,4r)-4-(1-aminoethyl)-N-(furo[2,3-b]pyridin-4-yl)cyclohexanecarboxamide] | 2200
C[C@@H](N)C1CCC(C(=O)Nc2ccnc3[nH]c(-c4ccccn4)cc23)CC1 (stereo partly shown) [MSK-A172, (1r,4r)-4-(1-aminoethyl)-N-(2-(pyridin-2-yl)-1H-pyrrolo [2,3-b]pyridin-4-yl)cyclohexanecarboxamide] | 110
CC(N)C1CCC(C(=O)Nc2ccnc3[nH]c(-n4cccn4)cc23)CC1 (stereo not shown) [MSK-A173, (1r,4r)-N-(2-(1H-pyrazol-1-yl)-1H-pyrrolo[2,3-b]pyridin-4-yl)-4-(1-aminoethyl)cyclohexanecarboxamide] | 630
CC(N)C1CCC(C(=O)Nc2ccnc3[nH]c(-c4ccsc4)cc23)CC1 (stereo not shown) [MSK-A176] | 5
CC(N)C1CCC(C(=O)Nc2ccnc3[nH]c(-c4cccs4)cc23)CC1 (stereo not shown) [MSK-A177] | 54
CC(N)C1CCC(C(=O)Nc2ccnc3[nH]c(-c4nccs4)cc23)CC1 (stereo not shown) [MSK-A178] | 47
CC(N)C1CCC(C(=O)Nc2ccnc3[nH]c(-c4ncccn4)cc23)CC1 (stereo not shown) [MSK-A180] | 2380
COC(=O)[C@@H](N)[C@H]1CC[C@H](C(=O)Nc2ccnc3[nH]c(-c4ccccc4)cc23)CC1 [MSK-A182, (S)-methyl 2-amino-2-((1r,4S)-4-((2-phenyl-1H-pyrrolo[2,3-b]pyridin-4-yl)carbamoyl)cyclo-hexyl)acetate] | 22.9
COC(=O)[C@H](N)[C@H]1CC[C@H](C(=O)Nc2ccnc3[nH]c(-c4ccccc4)cc23)CC1 [MSK-A183, (R)-methyl 2-amino-2-((1r,4R)-4-((2-phenyl-1H-pyrrolo[2,3-b]pyridin-4-yl)carbamoyl)cyclo-hexyl)acetate] | 185
CC(N)C1CCC(C(=O)Cc2ccnc3[nH]c(-c4ccc(F)cc4)cc23)CC1 (stereo not shown) [MSK-A184] | 18.9
Cc1cccc(-c2cc3c(CC(=O)C4CCC(C(C)N)CC4)ccnc3[nH]2)c1 (stereo not shown) [MSK-A192] | 20.2
CC(N)C1CCC(C(=O)Cc2ccnc3[nH]c(-c4cccc(C5CC5)c4)cc23)CC1 (stereo not shown) [MSK-A193] | 26.3
CC(N)C1CCC(C(=O)Nc2ccnc3[nH]c(-c4ncco4)cc23)CC1 (stereo not shown) [MSK-A202] | 156

More lines, now with the values ahead:

IC50 [nM] | Compound
1450 | CC(N)C1CCC(C(=O)Nc2ccnc3[nH]c(-c4nccn4C)cc23)CC1 (stereo not shown) [MSK-A171, (1r,4r)-4-(1-aminoethyl)-N-(2-(1-methyl-1H-imidazol-2-yl)-1H-pyrrolo[2,3-b]pyridin-4-yl)cyclohexanecarboxamide]
515 | CC(N)C1CCC(C(=O)Nc2ccnc3[nH]c(-n4ccnc4)cc23)CC1 (stereo not shown) [MSK-A181, (1r,4r)-N-(2-(1H-imidazol-1-yl)-1H-pyrrolo[2,3-b]pyridin-4-yl)-4-(1-aminoethyl)cyclohexanecarboxamide]
109 | CC(N)C1CCC(C(=O)Nc2ccnc3[nH]c(-c4cscn4)cc23)CC1 (stereo not shown) [MSK-A199]
73 | CC(N)C1CCC(C(=O)Nc2ccnc3[nH]c(-c4ncc[nH]4)cc23)CC1 (stereo not shown) [MSK-A157, (1r,4r)-N-(2-(1H-imidazol-2-yl)-1H-pyrrolo[2,3-b]pyridin-4-yl)-4-(1-aminoethyl)cyclohexanecarboxamide]
59.1 | CC(N)C1CCC(C(=O)Nc2ccnc3[nH]c(-c4cccc(F)c4)cc23)CC1 (single isomer, unassigned) [MSK-A191_peak 2, (1r,4r)-4-(1-aminoethyl)-N-(2-(3-fluorophenyl)-1H-pyrrolo[2,3-b]pyridin-4-yl)cyclohexanecarboxamide]
56.2 | CC(N)C1CCC(C(=O)Nc2ccnc3[nH]c(-c4ccsc4)cc23)CC1 (single isomer, unassigned) [MSK-A176-peak 1, (1r,4r)-4-(1-aminoethyl)-N-(2-(thiophen-3-yl)-1H-pyrrolo[2,3-b]pyridin-4-yl)cyclohexanecarboxamide]
40.8 | CC(N)C1CCC(C(=O)Nc2ccnc3[nH]c(-c4cccc(F)c4)cc23)CC1 (single isomer, unassigned) [MSK-A191_peak 1, (1r,4r)-4-(1-aminoethyl)-N-(2-(3-fluorophenyl)-1H-pyrrolo[2,3-b]pyridin-4-yl)cyclohexanecarboxamide]
38.9 | CC(N)C1CCC(C(=O)Nc2ccnc3[nH]c(-c4ccc(F)cc4)cc23)CC1 (single isomer, unassigned) [MSK-A184_peak 2, (1r,4r)-4-(1-aminoethyl)-N-(2-(4-fluorophenyl)-1H-pyrrolo[2,3-b]pyridin-4-yl)cyclohexanecarboxamide]
29.2 | CC(N)C1CCC(C(=O)Cc2ccnc3[nH]c(-c4cccc(C(F)(F)F)c4)cc23)CC1 (stereo not shown) [MSK-A194]
23.8 | CC(N)C1CCC(C(=O)Nc2ccnc3[nH]c(-c4ccc5ccccc5c4)cc23)CC1 (stereo not shown) [MSK-A190]
20.6 | CC(N)C1CCC(C(=O)Cc2ccnc3[nH]c(-c4cccc(F)c4)cc23)CC1 (stereo not shown) [MSK-A191]
19.4 | COc1ccc(-c2cc3c(CC(=O)C4CCC(C(C)N)CC4)ccnc3[nH]2)cc1 (stereo not shown) [MSK-A188]
18.3 | CC(N)C1CCC(C(=O)Cc2ccnc3[nH]c(-c4ccc(C#N)cc4)cc23)CC1 (stereo not shown) [MSK-A189]
18 | C[C@@H](N)C1CCC(C(=O)Nc2ccnc3[nH]c(-c4ccccc4)cc23)CC1 (stereo partly shown) [MSK-A170, (1r,4r)-4-(1-aminoethyl)-N-(2-phenyl-1H-pyrrolo[2,3-b]pyridin-4-yl)cyclohexanecarboxamide]

biological target: protein kinase CDK7 (Homo sapiens (Human), UniProt P50613); assay: Inhibition of protein kinase CDK7; format: biochemical; settings: not given
Sequence (P50613 whole entry): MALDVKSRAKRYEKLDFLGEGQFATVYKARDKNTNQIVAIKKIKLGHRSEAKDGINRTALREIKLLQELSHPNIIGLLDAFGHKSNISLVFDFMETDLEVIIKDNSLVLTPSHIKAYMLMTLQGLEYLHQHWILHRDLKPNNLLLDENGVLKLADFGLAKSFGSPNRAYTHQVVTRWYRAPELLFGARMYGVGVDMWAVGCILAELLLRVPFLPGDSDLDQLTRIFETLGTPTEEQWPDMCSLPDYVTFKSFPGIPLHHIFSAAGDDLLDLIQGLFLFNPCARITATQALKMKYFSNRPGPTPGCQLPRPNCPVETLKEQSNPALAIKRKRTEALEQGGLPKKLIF
Sequence (P51946 whole entry partner): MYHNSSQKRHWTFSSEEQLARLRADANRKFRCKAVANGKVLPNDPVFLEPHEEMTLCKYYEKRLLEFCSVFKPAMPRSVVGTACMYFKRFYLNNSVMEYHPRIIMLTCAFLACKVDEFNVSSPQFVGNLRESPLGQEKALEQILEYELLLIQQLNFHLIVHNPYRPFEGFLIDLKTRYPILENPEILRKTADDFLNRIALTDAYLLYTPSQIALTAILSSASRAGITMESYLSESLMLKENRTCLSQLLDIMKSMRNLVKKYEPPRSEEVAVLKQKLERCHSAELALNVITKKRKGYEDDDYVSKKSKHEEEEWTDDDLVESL
Sequence (P51948 whole entry partner): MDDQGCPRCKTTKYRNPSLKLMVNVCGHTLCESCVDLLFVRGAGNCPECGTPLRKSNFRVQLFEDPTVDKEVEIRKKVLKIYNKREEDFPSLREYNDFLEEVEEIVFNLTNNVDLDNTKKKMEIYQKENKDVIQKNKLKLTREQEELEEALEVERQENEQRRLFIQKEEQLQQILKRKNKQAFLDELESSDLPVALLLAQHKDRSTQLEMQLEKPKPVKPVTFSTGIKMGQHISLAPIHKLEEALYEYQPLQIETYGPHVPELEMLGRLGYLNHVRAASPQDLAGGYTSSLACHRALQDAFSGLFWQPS

Compound | inhibition of protein kinase CDK7 (potency)
CC(N)C1CCC(C(=O)Nc2ccnc3[nH]c(-c4ccsc4)cc23)CC1 (stereo not shown) [MSK-A176] | low nM potency
CC(N)C1CCC(C(=O)Cc2ccnc3[nH]c(-c4ccc(F)cc4)cc23)CC1 (stereo not shown) [MSK-A184] | low nM potency

Next, values leading:

inhibition of protein kinase CDK7 (potency) | Compound
low nM potency | CC(N)C1CCC(C(=O)Cc2ccnc3[nH]c(-c4cccc(F)c4)cc23)CC1 (stereo not shown) [MSK-A191]
low nM potency | CC(N)C1CCC(C(=O)Cc2ccnc3[nH]c(-c4ccc(C#N)cc4)cc23)CC1 (stereo not shown) [MSK-A189]

test system: MiaCaPa-2 cancer cells; assay: MiaCaPa-2 pancreatic ductal adenocarcinoma (PDAC) cell line xenograft mice model; format: in vivo; settings: MSK-A170-PEAK2 10 mg/kg + trametinib 0.5 mg/kg, i.p., 6 days a week, 17 days, female athymic nude mice
Protocol: FIG. 1 illustrates the final tumor weights for four groups on mice in a MiaCaPa-2 cell line xenograft mouse model, where “Control” group mice were treated 6 days a week, i.p., for 17 days with dosing vehicle; “ULK1i” group mice were treated 6 days a week, i.p., for 17 days with a compound of the present technology, 10 mg/kg; “MEKi” group mice were treated 6 days a week, i.p., for 17 days with MEK1 inhibitor trametinib, 0.5 mg/kg; “ULK1i+MEKi” group mice were treated 6 days a week, i.p., for 17 days with a combination of the compound of the present technology (10 mg/kg) and trametinib (0.5 mg/kg), according to the working examples.
FIG. 2 provides the tumor volume over time for each group of the xenograft mouse model study that provided the data of FIG. 1, according to the working examples.
Female athymic nude (Foxn1^nu) mice were implanted with 2×10^6 MiaCaPa-2 cancer cells per animal subcutaneously at the right flank. […] The tumor volume was measured on 1, 3, 5, 7, 9, 11, 13, 15, and 17. […]

Compound | tumor weight / tumor volume, combination with trametinib versus trametinib alone
C[C@@H](N)C1CCC(C(=O)Nc2ccnc3[nH]c(-c4ccccc4)cc23)CC1 (single isomer, unassigned) [MSK-A170-PEAK2] | significantly improved results
